Results from a melting point compilation (Tetko et al.; mined from patent text by program, amines drawn as free bases though some values may be those of a salt).

SMILES | melting point
CC(C)(C)OC(=O)N(Cc1ccccc1)C1CN(C(c2ccccc2)c2ccccc2)C1 | 117 to 118 °C
CCCCc1nc2c(N)nc3cc(C)ccc3c2o1 | 187 to 188 °C
Nc1ccccc1-c1nc2ccccc2c(=O)o1 | 163 to 165 °C
COC(=O)CN(C)c1nc(-c2ccc(Br)cc2)cs1 | 86 °C
COC(=O)C1Oc2ccccc2Cc2ccc(OC)cc2O1 (configuration not stated) | 93 to 95 °C
CCc1noc(-c2cn(-c3ccccn3)cn2)n1 | 162 to 163 °C
COc1cccc(C(=N)NN2CCc3ccccc3C2=O)c1 | 176 to 177 °C
COC(=O)C(C#N)=C(C=CN(C)C)c1ccc(OC)cc1 | 175 to 178 °C
Cc1cc(-c2ccc(S(N)(=O)=O)cc2)n(-c2ccc(F)cc2)c1Cl | 119 to 120 °C
NC(=O)CNC(=O)c1cc(F)cc(-c2ccc(F)c3cc(Cc4cc(F)cc(Cl)c4)sc23)c1 | 192 to 194 °C
CC(C)=CCn1ncc(-c2ccc(S(N)(=O)=O)c(F)c2)c(-c2ccc(F)cc2)c1=O | 134 to 136 °C
CCCCCS(=O)(=O)NC(=O)/C=C/c1ccc(OCCO[Si](c2ccccc2)(c2ccccc2)C(C)(C)C)cc1Oc1ncc(C(F)(F)F)cc1Cl | 108 °C
O=C(CN1CC(c2ccc(Cl)cc2)CC1=O)N1CCNCC1 (configuration not stated) | 148 to 150 °C
COc1ccc(-c2nc3scc(-c4cc(C(C)(C)C)c(O)c(C(C)(C)C)c4)n3c2-c2ccc(OC)cc2)cc1 | 236 to 237 °C
CCOC(=O)C1=C(C)NC(C)=C(C(=O)OCC)C1c1ccccc1Cl | 120 to 121 °C
Cc1nc(C=O)c2n1-c1ccc(Cl)cc1C(c1ccccc1F)=NC2 | 190 to 192 °C
O=C1NC(=O)C(S(=O)c2ccc3ccccc3c2)S1 (configuration not stated) | 157 to 158 °C
CN1CCc2c(c3ccccc3n2CCc2nc(-c3ccncc3)cs2)C1 | 158 to 160 °C
O=C(N[C@H](Cc1ccccc1)[C@H](O)C(=O)O)OCc1ccccc1 | 154 to 155 °C

SMILES | melting point
CC(C)(C)OC(=O)n1c(-c2ccc3c(c2)C(C)(C)OC(=O)N3)ccc1[N+](=O)[O-] | 125 °C
O=C1NC(=O)C(Cc2ccc(C(=O)CCc3ccccc3)cc2)S1 (configuration not stated) | 119 to 121 °C
COC(=O)C1CC(C#N)(c2ccc(OC(F)F)c(OC3CCCC3)c2)CCC1=O (configuration not stated) | 109 to 110 °C
COC(=O)c1cc(C(=O)OC)cc(-c2cc(C(=O)OC)cc(C(=O)OC)c2)c1 | 214 to 215 °C
CC(Oc1ccc2c(=O)c(-c3cccc(O)c3)coc2c1)C(=O)O (configuration not stated) | 218 to 219 °C
COc1cc(N=C2SC(=CC(=O)O)C(=O)N2c2cc(OC)c(OC)c(OC)c2)cc(OC)c1OC | 250 to 252 °C
Cc1ccc(S(=O)(=O)NC(C)P(=O)(Oc2ccccc2)c2ccccc2)cc1 (configuration not stated) | 178 to 181 °C
CC(C)c1sc2ncnc(N)c2c1-c1ccc(N)cc1 | 187 to 189 °C
O=c1c2ccccc2ncn1-c1nnn[nH]1 | 259 to 260 °C
CCc1cn2ccccc2c1S(=O)(=O)c1ccc(OCCCCBr)cc1 | 111 °C
CC#CCOc1ccc(SC(C(=O)NO)C2CCCCC2)cc1 (configuration not stated) | 163 °C
CC(C)C(NC(=O)OCc1ccccn1)C(=O)NC(Cc1ccccc1)C(O)C(Cc1ccccc1)NC(=O)C(NC(=O)OCc1ccccn1)C(C)C (configuration not stated) | 155 to 156 °C
Cc1ccc2ncn([C@H](C)[C@](O)(Cn3cncn3)c3ccc(F)cc3F)c(=O)c2c1 | 189 to 190 °C
CCOC(=O)N1CCc2c(cnc3nc(/C=C4/C(=O)N5C(C(=O)O)=CS[C@H]45)nn23)C1 | > 250 °C
N#Cc1cc(N)ccc1Oc1ccccc1 | 89 °C
CC(C)C1C(=O)N(CCl)S(=O)(=O)N1C (configuration not stated) | 118 to 120 °C
CCc1ccc(OCCCN2CCC(C(O)(c3ccc(F)cc3)c3ccc(F)cc3)CC2)c(OC)c1 | 118 to 120 °C
CC(C)c1[nH]n(-c2c(Cl)cc(Cl)cc2Cl)c2nc(Cc3ccc(N(C(=O)OC(C)(C)C)C(=O)[C@@H]4CCCN4)cc3)nc(=O)c1-2 | 225 to 226 °C
